Test results: patent publication EP0238060B1, “Cephalosporin derivatives, processes for their preparation and antibacterial agents” (Banyu Pharmaceutical Co., Ltd., priority 1986, dated 1987)
≈ marks a conversion by molar mass, not a printed value.

Key:
Assay in all cases: In vitro antibacterial activity, agar plate dilution method (MIC)
[1] = test system: Ps.maltophilia GN 12873; assay type: cell-based, Pseudomonas maltophilia; conditions: Stenotrophomonas maltophilia, GN12873; Ps.maltophilia GN 12873 (β-Lactamase-producing strain); Mueller Hinton agar, inoculum 10⁶ CFU/ml, 37°C, 16 hours; read-out: Minimum Inhibitory Concentration (MIC: µg/ml)
Method: (§1) The in vitro antibacterial activities of the compounds of the present invention against various microorganisms, were measured by the following agar plate dilution method. One platinum loopfull of each test microorganism incubated overnight in Mueller Hinton broth, was inoculated to Mueller Hinton agar (inoculum size: l0⁶ CFU/ml). Such culture media containing various antibiotics in various concentrations were prepared. After incubation at 37°C for l6 hours, the minimum inhibitory concentrations (MIC: µg/ml) were measured. As comparative compounds, Cefotaxime, Ceftazidime and the compounds of Reference Examples l to 4 were employed.

[2] = test system: Ps.cepacia 23; assay type: cell-based, Pseudomonas cepacia; conditions: Burkholderia cepacia; Ps.cepacia 23; Mueller Hinton agar, inoculum 10⁶ CFU/ml, 37°C, 16 hours; read-out: Minimum Inhibitory Concentration (MIC: µg/ml)
Method: as §1

[3] = test system: E.coli CSH(RE45); assay type: cell-based; conditions: Escherichia coli, 16 h, read-out: Minimum Inhibitory Concentration (MIC: µg/ml)
Method: as §1

[4] = test system: S.aureus BB5703; assay type: cell-based; conditions: Staphylococcus aureus; S.aureus BB5703; Mueller Hinton agar, inoculum 10⁶ CFU/ml, 37°C, 16 hours; read-out: Minimum Inhibitory Concentration (MIC: µg/ml)
Method: as §1

[5] = test system: Ps.aeruginosa AK 109; assay type: cell-based; conditions: Pseudomonas aeruginosa, AK109; Ps.aeruginosa AK 109; Mueller Hinton agar, inoculum 10⁶ CFU/ml, 37°C, 16 hours; read-out: Minimum Inhibitory Concentration (MIC: µg/ml)
Method: as §1

[6] = test system: Ps.aeruginosa AKR17; assay type: cell-based; conditions: Pseudomonas aeruginosa; Ps.aeruginosa AKR17; Mueller Hinton agar, inoculum 10⁶ CFU/ml, 37°C, 16 hours; read-out: Minimum Inhibitory Concentration (MIC: µg/ml)
Method: as §1

[7] = test system: C.freundii GN346; assay type: cell-based; conditions: Citrobacter freundii; C.freundii GN346 (β-Lactamase-producing strain); Mueller Hinton agar, inoculum 10⁶ CFU/ml, 37°C, 16 hours; read-out: Minimum Inhibitory Concentration (MIC: µg/ml)
Method: as §1

[8] = test system: E.cloacae Nek 39; assay type: cell-based; conditions: Enterobacter cloacae, NEK39; E.cloacae Nek 39 (β-Lactamase-producing strain); Mueller Hinton agar, inoculum 10⁶ CFU/ml, 37°C, 16 hours; read-out: Minimum Inhibitory Concentration (MIC: µg/ml)
Method: as §1

[9] = test system: S.aureus JS1; assay type: cell-based; conditions: Staphylococcus aureus; S.aureus JS1 (β-Lactamase-producing strain); Mueller Hinton agar, inoculum 10⁶ CFU/ml, 37°C, 16 hours; read-out: Minimum Inhibitory Concentration (MIC: µg/ml)
Method: as §1

[10] = test system: S.aureus 209P NIHJ-JC1; assay type: cell-based; conditions: Staphylococcus aureus; S.aureus 209P NIHJ-JC1; Mueller Hinton agar, inoculum 10⁶ CFU/ml, 37°C, 16 hours; read-out: Minimum Inhibitory Concentration (MIC: µg/ml)
Method: as §1

[11] = test system: P.vulgaris HX-19; assay type: cell-based; conditions: Proteus vulgaris, HX19; P.vulgaris HX-19; Mueller Hinton agar, inoculum 10⁶ CFU/ml, 37°C, 16 hours; read-out: Minimum Inhibitory Concentration (MIC: µg/ml)
Method: as §1

[12] = test system: M.luteus ATCC9341; assay type: cell-based; conditions: Micrococcus luteus; M.luteus ATCC9341; Mueller Hinton agar, inoculum 10⁶ CFU/ml, 37°C, 16 hours; read-out: Minimum Inhibitory Concentration (MIC: µg/ml)
Method: as §1

[13] = test system: P.vulgaris No. 33; assay type: cell-based; conditions: Proteus vulgaris; P.vulgaris No. 33 (β-Lactamase-producing strain); Mueller Hinton agar, inoculum 10⁶ CFU/ml, 37°C, 16 hours; read-out: Minimum Inhibitory Concentration (MIC: µg/ml)
Method: as §1

[14] = test system: S.marcescens IAM 1184; assay type: cell-based; conditions: Serratia marcescens, IAM1184; S.marcescens IAM 1184; Mueller Hinton agar, inoculum 10⁶ CFU/ml, 37°C, 16 hours; read-out: Minimum Inhibitory Concentration (MIC: µg/ml)
Method: as §1

[15] = test system: A.calcoaceticus No. 4; assay type: cell-based; conditions: Acinetobacter calcoaceticus; A.calcoaceticus No. 4; Mueller Hinton agar, inoculum 10⁶ CFU/ml, 37°C, 16 hours; read-out: Minimum Inhibitory Concentration (MIC: µg/ml)
Method: as §1

[16] = test system: E.coli NIHJ JC2; assay type: cell-based; conditions: Escherichia coli, NIHJJC2; E.coli NIHJ JC2; Mueller Hinton agar, inoculum 10⁶ CFU/ml, 37°C, 16 hours; read-out: Minimum Inhibitory Concentration (MIC: µg/ml)
Method: as §1

[17] = test system: S.epidermidis IAM12012; assay type: cell-based; conditions: Staphylococcus epidermidis; S.epidermidis IAM12012; Mueller Hinton agar, inoculum 10⁶ CFU/ml, 37°C, 16 hours; read-out: Minimum Inhibitory Concentration (MIC: µg/ml)
Method: as §1

[18] = test system: E.coli GN5482; assay type: cell-based; conditions: Escherichia coli; E.coli GN5482 (β-Lactamase-producing strain); Mueller Hinton agar, inoculum 10⁶ CFU/ml, 37°C, 16 hours; read-out: Minimum Inhibitory Concentration (MIC: µg/ml)
Method: as §1

[19] = test system: Ps.aeruginosa IFO3445; assay type: cell-based; conditions: Pseudomonas aeruginosa; Ps.aeruginosa IFO3445; Mueller Hinton agar, inoculum 10⁶ CFU/ml, 37°C, 16 hours; read-out: Minimum Inhibitory Concentration (MIC: µg/ml)
Method: as §1

[20] = test system: M.morganii GN5407; assay type: cell-based; conditions: Morganella morganii; M.morganii GN5407 (β-Lactamase-producing strain); Mueller Hinton agar, inoculum 10⁶ CFU/ml, 37°C, 16 hours; read-out: Minimum Inhibitory Concentration (MIC: µg/ml)
Method: as §1

[21] = test system: K.oxytoca GN10650; assay type: cell-based; conditions: Klebsiella oxytoca; K.oxytoca GN10650 (β-Lactamase-producing strain); Mueller Hinton agar, inoculum 10⁶ CFU/ml, 37°C, 16 hours; read-out: Minimum Inhibitory Concentration (MIC: µg/ml)
Method: as §1

[22] = test system: E.cloacae 963; assay type: cell-based; conditions: Enterobacter cloacae; E.cloacae 963; Mueller Hinton agar, inoculum 10⁶ CFU/ml, 37°C, 16 hours; read-out: Minimum Inhibitory Concentration (MIC: µg/ml)
Method: as §1

[23] = test system: C.freundii GN346/16; assay type: cell-based; conditions: Citrobacter freundii; C.freundii GN346/16; Mueller Hinton agar, inoculum 10⁶ CFU/ml, 37°C, 16 hours; read-out: Minimum Inhibitory Concentration (MIC: µg/ml)
Method: as §1

[24] = test system: E.coli CSH2 (RK1); assay type: cell-based; conditions: Escherichia coli, 16 h, read-out: Minimum Inhibitory Concentration (MIC: µg/ml)
Method: as §1

[25] = test system: K.pneumoniae No. 42; assay type: cell-based; conditions: Klebsiella pneumoniae; K.pneumoniae No. 42 (β-Lactamase-producing strain); Mueller Hinton agar, inoculum 10⁶ CFU/ml, 37°C, 16 hours; read-out: Minimum Inhibitory Concentration (MIC: µg/ml)
Method: as §1

[26] = test system: S.marcescens No. 16-2; assay type: cell-based; conditions: Serratia marcescens, NO.162; S.marcescens No. 16-2 (β-Lactamase-producing strain); Mueller Hinton agar, inoculum 10⁶ CFU/ml, 37°C, 16 hours; read-out: Minimum Inhibitory Concentration (MIC: µg/ml)
Method: as §1

[27] = test system: K.pneumoniae PCI-602; assay type: cell-based; conditions: Klebsiella pneumoniae, PCI602; K.pneumoniae PCI-602; Mueller Hinton agar, inoculum 10⁶ CFU/ml, 37°C, 16 hours; read-out: Minimum Inhibitory Concentration (MIC: µg/ml)
Method: as §1

| Compound | MIC [1] [µg/mL] | MIC [2] [µg/mL] | MIC [3] [µg/mL] | MIC [4] [µg/mL] | MIC [5] [µg/mL] | MIC [6] [µg/mL] | MIC [7] [µg/mL] | MIC [8] [µg/mL] | MIC [9] [µg/mL] | MIC [10] [µg/mL] | MIC [11] [µg/mL] | MIC [12] [µg/mL] | MIC [13] [µg/mL] | MIC [14] [µg/mL] | MIC [15] [µg/mL] | MIC [16] [µg/mL] | MIC [17] [µg/mL] | MIC [18] [µg/mL] | MIC [19] [µg/mL] | MIC [20] [µg/mL] | other results |
| --- | --- | --- | --- | --- | --- | --- | --- | --- | --- | --- | --- | --- | --- | --- | --- | --- | --- | --- | --- | --- | --- |
| CO/N=C(\C(=O)NC1C(=O)N2C(C(=O)[O-])=C(C[n+]3ccc4cc(O)c(O)cc4c3)CSC12)c1csc(N)n1 (stereo not drawn) [Ex. 1, 7-[2-(2-aminothiazol-4-yl)-2-methoxyiminoacetamido]-3-(6,7-dihydroxy-2-isoquinolinio)-methyl-3-cephem-4-carboxylate] | > 100 | 0.78 (≈ 1.4 µM) | 0.78 (≈ 1.4 µM) | 3.12 (≈ 5.61 µM) | 0.78 (≈ 1.4 µM) | 100 (≈ 180 µM) | 25 (≈ 44.9 µM) | 0.1 (≈ 0.18 µM) | 25 (≈ 44.9 µM) | 1.56 (≈ 2.8 µM) | < 0.006 | 0.1 (≈ 0.18 µM) | 0.1 (≈ 0.18 µM) | 0.0125 (≈ 0.0225 µM) | 0.2 (≈ 0.359 µM) | 0.05 (≈ 0.0898 µM) | 0.78 (≈ 1.4 µM) | 0.39 (≈ 0.701 µM) | 0.78 (≈ 1.4 µM) | 0.1 (≈ 0.18 µM) | MIC [21]: 0.78 µg/mL (≈ 1.4 µM); MIC [22]: 0.025 µg/mL (≈ 0.0449 µM); MIC [23]: 0.78 µg/mL (≈ 1.4 µM); MIC [24]: < 0.006 µg/mL; MIC [25]: 0.025 µg/mL (≈ 0.0449 µM); MIC [26]: 3.12 µg/mL (≈ 5.61 µM); MIC [27]: < 0.006 µg/mL |
| CO/N=C(\C(=O)N[C@@H]1C(=O)N2C(C(=O)O)=C(COC(C)=O)CS[C@H]12)c1csc(N)n1 [Cefotaxime, reference compound] | > 100 | 6.25 (≈ 13.7 µM) | 0.2 (≈ 0.439 µM) | 3.12 (≈ 6.85 µM) | 12.5 (≈ 27.4 µM) | > 100 | 25 (≈ 54.9 µM) | 3.12 (≈ 6.85 µM) | 25 (≈ 54.9 µM) | 1.56 (≈ 3.43 µM) | < 0.006 | 0.05 (≈ 0.11 µM) | 0.025 (≈ 0.0549 µM) | 0.05 (≈ 0.11 µM) | 25 (≈ 54.9 µM) | 0.05 (≈ 0.11 µM) | 0.39 (≈ 0.856 µM) | 0.39 (≈ 0.856 µM) | 3.12 (≈ 6.85 µM) | 0.05 (≈ 0.11 µM) | MIC [21]: 0.78 µg/mL (≈ 1.71 µM); MIC [22]: 0.1 µg/mL (≈ 0.22 µM); MIC [23]: 0.1 µg/mL (≈ 0.22 µM); MIC [24]: 0.05 µg/mL (≈ 0.11 µM); MIC [25]: 0.05 µg/mL (≈ 0.11 µM); MIC [26]: 25 µg/mL (≈ 54.9 µM); MIC [27]: < 0.006 µg/mL |
| C#CCON=C(C(=O)NC1C(=O)N2C(C(=O)[O-])=C(C[n+]3ccc4cc(O)c(O)cc4c3)CS[C@H]12)c1csc(N)n1 (stereo partly drawn) [Ex. 7, 7-[2-(2-aminothiazol-4-yl)-2-(2-propynyloxyimino)acetamido]-3-(6,7-dihydroxy-2-isoquinolio)methyl-3-cephem-4-carboxylate] | > 100 | 0.1 (≈ 0.172 µM) | 0.05 (≈ 0.0861 µM) | 6.25 (≈ 10.8 µM) | 0.78 (≈ 1.34 µM) | 100 (≈ 172 µM) | 50 (≈ 86.1 µM) | 0.2 (≈ 0.344 µM) | 50 (≈ 86.1 µM) | 1.56 (≈ 2.69 µM) | < 0.006 | 0.2 (≈ 0.344 µM) | 0.05 (≈ 0.0861 µM) | < 0.006 | 0.2 (≈ 0.344 µM) | 0.2 (≈ 0.344 µM) | 0.2 (≈ 0.344 µM) | 0.78 (≈ 1.34 µM) | 0.78 (≈ 1.34 µM) | 0.05 (≈ 0.0861 µM) | MIC [21]: 1.56 µg/mL (≈ 2.69 µM); MIC [22]: 0.0125 µg/mL (≈ 0.0215 µM); MIC [23]: 0.78 µg/mL (≈ 1.34 µM); MIC [24]: < 0.006 µg/mL; MIC [25]: < 0.006 µg/mL; MIC [26]: 1.56 µg/mL (≈ 2.69 µM); MIC [27]: < 0.006 µg/mL |
